# Data from paper PMC12261219, “Comparative Evaluation of Thiol- and Amine-Conjugating Moieties for Endogenous Albumin Binding after Intravenous Administration” (ACS Pharmacology & Translational Science, 2025).
# Values joined by “and” are separate entries in the source; they are usually repeats but may differ in a detail not shown here. Equal entries are not always repeated.
# Legend:
# [1] = Hydrolytic stability in buffer (HPLC); format: physicochemical; settings: for Intact compound after 25 h: 0.5 mM
# Protocol: The samples were incubated at 20 °C and measured over 25 h. Reversed phase high-performance liquid chromatography (RP-HPLC) runs were performed using a Waters Acquity UPLC BEH C18 column (130 Å, 1.7 μm, 3 mm × 50 mm) on a Dionex Thermo Scientific UltiMate 3000 HPLC system, equipped with a HPG-3400RS binary pump and a DAD-3000 UV–vis detector. Chromatograms were evaluated at a wavelength of 220 nm. Milli-Q water (mobile phase A) and acetonitrile (mobile phase B), both containing 0.1% TFA, were used as eluents. The flow rate was consistent at 0.6 mL/min for all measurements using the following gradient: 0–0.5 min A 95:5 B, 0.5–5.5 min linear gradient to A 5:95 B, 5.5–6.5 min A 5:95 B, 6.5–9.2 min A 95:5 B. The same conditions were applied for stability measurements in 100 mM PB at pH 5.5 and 6.5 as well as in 20 mM HEPES and MOPS at pH 7.4. RP-HPLC-MS analyses of the same samples after the stability measurements were conducted on a Waters Acquity UPLC BEH C18 column (130 Å, 1.7 μm, 3 mm × 50 mm) on an Agilent 1260 Infinity II system equipped with a Flexible pump, a 1260 VWD UV–vis detector and the LC–MSD system. Chromatograms were evaluated at a wavelength of 220 nm. Milli-Q water (mobile phase A) and acetonitrile (mobile phase B), both containing 0.1% formic acid, were used as eluents. The flow rate was consistent at 0.6 mL/min for all measurements using the following gradient: 0–0.5 min A 95:5 B, 0.5–6.0 min linear gradient to A 5:95 B, 6.0–7.0 min A 5:95 B, 7.0–7.1 min linear gradient to A 95:5 B, 7.1–8.0 min A 95:5 B.
# [2] = Reduction with ascorbic acid, release of oxaliplatin (HPLC); format: physicochemical; settings: 0.5 mM, 150 mM PB, pH 7.4, 20 °C, 30 eq. ascorbic acid
# Protocol: The samples were incubated at 20 °C and measured over 25 h. […] RP-HPLC runs were performed using a Waters Acquity UPLC HSS T3 column (100 Å, 1.8 μm, 3.0 mm × 50 mm) on a Dionex Thermo Scientific UltiMate 3000 HPLC system, equipped with a HPG-3400RS binary pump and a DAD-3000RS UV–vis detector. Chromatograms were evaluated at a wavelength of 230 nm. Milli-Q water (mobile phase A) and acetonitrile (mobile phase B), both containing 0.1% TFA, were used as eluents. The flow rate was consistent at 0.6 mL/min for all measurements using the following gradient: 0–0.5 min A 99:1 B, 0.5–5.5 min linear gradient to A 1:99 B, 5.5–6.5 min A 1:99 B, 6.5–9.2 min A 99:1 B.
# [3] = biological target: T1, albumin (human serum) (Homo sapiens, UniProt P02768); experiment: SEC-ICP-MS albumin binding in human serum; format: in vitro ADME; settings: for Pt195 in HMWF (albumin-bound) / Pt195 in LMWF: 100 µM, 37 °C; for Bound to albumin: from 1 to 24 h
# T1 construct: Human serum was purchased from Sigma-Aldrich; tissue Sigma-Aldrich; host or cells: human serum
# T1 sequence (P02768 25-609): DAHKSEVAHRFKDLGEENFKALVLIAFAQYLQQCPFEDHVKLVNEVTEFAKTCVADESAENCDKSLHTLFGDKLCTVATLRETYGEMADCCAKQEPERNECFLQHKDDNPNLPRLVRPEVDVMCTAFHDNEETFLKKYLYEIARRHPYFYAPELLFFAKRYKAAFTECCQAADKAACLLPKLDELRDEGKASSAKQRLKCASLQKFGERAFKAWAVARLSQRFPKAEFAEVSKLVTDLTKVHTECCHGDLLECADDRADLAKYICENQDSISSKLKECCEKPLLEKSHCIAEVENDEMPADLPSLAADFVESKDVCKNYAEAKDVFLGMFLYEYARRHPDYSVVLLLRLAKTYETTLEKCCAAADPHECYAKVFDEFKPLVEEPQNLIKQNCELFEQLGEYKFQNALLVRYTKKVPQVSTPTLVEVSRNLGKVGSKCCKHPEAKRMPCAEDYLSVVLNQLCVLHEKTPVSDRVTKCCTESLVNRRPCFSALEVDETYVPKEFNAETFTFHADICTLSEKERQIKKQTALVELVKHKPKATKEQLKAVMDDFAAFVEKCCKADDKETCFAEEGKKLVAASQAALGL
# Protocol: Blood of Bab/c mice was collected under anesthesia via heart puncture. […] Human serum was purchased from Sigma-Aldrich. In order to guarantee a stable pH, all sera were buffered with 150 mM phosphate to pH 7.4 by dissolving the necessary amounts of Na2HPO4 and NaH2PO4 directly in the serum. […] The samples were then incubated in the autosampler at 37 °C and analyzed every hour for 4 or 5 h and after 24 h. Between each sample a pure water blank was measured. For measurements with 10 min intervals the same procedure was followed, but the blank measurements were omitted. For SEC-ICP-MS measurements an Agilent 1260 Infinity system coupled to an Agilent 7800 ICP-HRMS equipped with a dynamic reaction cell was used. Oxygen (purity 5.5, Messer Austria GmbH, Gumpoldskirchen, Austria) was used as reaction gas.
# [4] = biological target: T2, albumin (Homo sapiens, UniProt P02768); experiment: SEC-ICP-MS with single serum protein solution: albumin; format: binding; settings: 200 μM albumin, 100 μM compound, 100 mM PB pH 7.4, 37 °C, 2 h
# T2 construct: purchased Sigma-Aldrich A8763
# T2 sequence (P02768 25-609): as above
# Protocol: (§1) All investigated proteins were purchased from commercial suppliers: Albumin (Sigma-Aldrich, A8763), IgG (Athens Research, 16–16–090707), α1-antitrypsin (Sigma-Aldrich, A6150) and apotransferrin (Sigma-Aldrich, T1147). […] The compound stocks were diluted into the protein solution to reach a final concentration of 100 μM (27 μL protein and 3 μL compound). The samples were incubated at 37 °C for 2 h and analyzed as described for the SEC-ICP-MS studies (Tables S6 and S7).
# [5] = system: IgG; experiment: SEC-ICP-MS with single serum protein solution: IgG; format: binding, human; settings: 200 μM IgG, 100 μM compound, 100 mM PB pH 7.4, 37 °C, 2 h
# Protocol: as §1
# [6] = biological target: T3, apotransferrin (Homo sapiens, UniProt P02787); experiment: SEC-ICP-MS with single serum protein solution: apotransferrin; format: binding; settings: 200 μM apotransferrin, 100 μM compound, 100 mM PB pH 7.4, 37 °C, 2 h
# T3 construct: purchased Sigma-Aldrich T1147
# T3 sequence (P02787 20-698): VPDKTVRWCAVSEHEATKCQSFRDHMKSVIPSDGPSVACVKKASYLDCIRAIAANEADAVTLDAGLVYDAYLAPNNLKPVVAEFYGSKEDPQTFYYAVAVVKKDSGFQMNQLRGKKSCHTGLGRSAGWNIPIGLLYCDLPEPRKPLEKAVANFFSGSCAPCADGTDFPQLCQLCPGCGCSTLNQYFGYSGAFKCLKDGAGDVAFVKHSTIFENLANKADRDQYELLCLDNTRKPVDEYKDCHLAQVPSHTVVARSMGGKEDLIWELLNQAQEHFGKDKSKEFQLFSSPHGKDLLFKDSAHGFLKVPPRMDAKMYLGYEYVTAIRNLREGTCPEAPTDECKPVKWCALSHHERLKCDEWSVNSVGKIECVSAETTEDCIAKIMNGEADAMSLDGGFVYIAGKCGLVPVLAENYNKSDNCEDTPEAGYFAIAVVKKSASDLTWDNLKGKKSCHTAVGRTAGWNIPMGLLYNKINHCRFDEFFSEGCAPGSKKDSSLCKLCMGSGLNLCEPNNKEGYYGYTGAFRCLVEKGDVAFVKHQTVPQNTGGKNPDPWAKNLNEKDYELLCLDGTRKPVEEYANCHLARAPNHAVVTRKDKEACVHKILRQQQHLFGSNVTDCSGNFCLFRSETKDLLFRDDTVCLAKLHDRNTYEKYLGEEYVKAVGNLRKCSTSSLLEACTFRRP
# Protocol: as §1
# [7] = biological target: T4, α1-antitrypsin (Homo sapiens, UniProt P01009); experiment: SEC-ICP-MS with single serum protein solution: α1-antitrypsin; format: binding; settings: 200 μM α1-antitrypsin, 100 μM compound, 100 mM PB pH 7.4, 37 °C, 2 h
# T4 construct: purchased Sigma-Aldrich A6150
# T4 sequence (P01009 25-418): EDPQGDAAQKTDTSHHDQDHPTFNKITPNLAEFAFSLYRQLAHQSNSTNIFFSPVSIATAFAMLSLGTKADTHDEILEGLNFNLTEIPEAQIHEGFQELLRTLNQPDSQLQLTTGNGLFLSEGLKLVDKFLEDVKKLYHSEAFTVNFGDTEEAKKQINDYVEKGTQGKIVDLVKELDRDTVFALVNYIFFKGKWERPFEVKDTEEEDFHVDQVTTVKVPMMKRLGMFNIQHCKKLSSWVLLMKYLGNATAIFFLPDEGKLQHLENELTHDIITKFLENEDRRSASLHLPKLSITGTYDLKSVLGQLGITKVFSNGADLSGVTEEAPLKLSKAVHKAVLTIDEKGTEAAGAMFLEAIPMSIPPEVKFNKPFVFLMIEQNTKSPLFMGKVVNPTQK
# Protocol: as §1
# [8] = Serum pharmacokinetics (platinum, ICP-MS) in CT26-bearing Balb/c mice; settings: for Cmax / Percentage of AUCPt_0-∞ extrapolated from tlast to infinity / Half-life / CL / Vz: serum platinum; for Cmax: measured at tmax=0.08 h; for Cmax / CL: single i.v. dose 4.42 mg/kg Pt; for Percentage of AUCPt_0-∞ extrapolated from tlast to infinity: tlast=24 h; for Half-life: terminal half-life; for CL: total body clearance; for Vz: volume of distribution based on the terminal phase
# Protocol: CT26 cells (5 × 10^5 in 50 μL serum-free medium) were injected subcutaneously (s.c.) into the right flank of male Balb/c mice. […] The blood, tumor and organ collection followed the study design in Figure A. Briefly, to assess serum platinum levels, blood was collected after 5 min, 30 min, 5 h and 24 h (2 mice per time point) via the facial vein. The serum was separated by centrifugation (two times 10 min at 900 g) after 10 min clotting at room temperature. […] All collected samples were stored at −20 °C and further processed for platinum measurements via ICP-MS as follows: HNO3 (67–69%, suprapur for trace metal analysis, NORMATOM; Distributor: VWR international, Austria) and conc. H2O2 suprapur (Merck, 30%) were used without further purification. Digestion of tissue (approximately 15–30 mg gravimetrically weighted) was performed with 2 mL of approximately 20% HNO3 and 100 μL H2O2 using an open vessel graphite digestion system (coated graphite heating plate, coated sample holder-top for 25 mL vials, PFA vials and PFA lids; Labter, ODLAB; Distributor: AHF Analysentechnik AG; Germany). Digested samples were diluted in Milli-Q water (18.2 MΩ cm, Milli-Q Advantage, Darmstadt, Germany). For the ICP-MS analysis, platinum and rhenium standards were derived from CPI International (Amsterdam, The Netherlands). The total platinum content was determined with a quadrupole-based Agilent 7800 ICP-MS instrument (Agilent Technologies, Tokyo, Japan) equipped with the Agilent SPS 4 autosampler (Agilent Technologies, Tokyo, Japan) and a MicroMist nebulizer at a sample uptake rate of approximately 0.2 mL/min. An RF power of 1550 W was used as well as nickel cones. Argon was used as plasma gas (15 L/min) and as carrier gas (∼1.1 L/min). The dwell time was set to 0.1 s and the measurements were performed in 6 replicates with 100 sweeps. Rhenium served as internal standard for platinum. The Agilent MassHunter software package (Workstation Software, version C.01.04) was used for data processing.
# As platinum was measured in serum, equimolar administered doses were adjusted to correspond to platinum (0.0227 mmol, 4.42 mg platinum). The area under the “concentration”–time curve (AUC) was determined from time 0 to infinity (AUCPt_0‑∞) and from time 0 to 24 h (AUCPt_0–24, based on the last observed sample at 24 h; linear-log trapezoidal calculation method). The terminal slope (λ z ) was determined based on the last two (out of four) measurements (times 5 h and 24 h).
SMILES,"Intact compound after 25 h ([1]; 20 mM HEPES, pH 7.4, 20 °C)","Intact compound after 25 h ([1]; 20 mM MOPS, pH 7.4, 20 °C)","Intact compound after 25 h ([1]; 100 mM PB, pH 5.5, 20 °C)","Intact compound after 25 h ([1]; 100 mM PB, pH 6.5, 20 °C)","Intact compound after 25 h ([1]; 100 mM PB, pH 7.4, 20 °C) [%]",Oxaliplatin detected (released) after 25 h [2] [%],"Pt195 in HMWF (albumin-bound) ([3]; pH 7.4, 0 h)","Pt195 in LMWF ([3]; pH 7.4, 0 h) [%]","Pt195 in HMWF (albumin-bound) ([3]; pH 7.4, 1 h)","Pt195 in LMWF ([3]; pH 7.4, 1 h) [%]","Pt195 in HMWF (albumin-bound) ([3]; pH 7.4, 2 h) [%]","Pt195 in LMWF ([3]; pH 7.4, 2 h) [%]","Pt195 in HMWF (albumin-bound) ([3]; pH 7.4, 3 h) [%]","Pt195 in LMWF ([3]; pH 7.4, 3 h) [%]","Pt195 in HMWF (albumin-bound) ([3]; pH 7.4, 4 h) [%]","Pt195 in LMWF ([3]; pH 7.4, 4 h) [%]","Pt195 in HMWF (albumin-bound) ([3]; pH 7.4, 5 h) [%]","Pt195 in LMWF ([3]; pH 7.4, 5 h) [%]","Pt195 in HMWF (albumin-bound) ([3]; pH 7.4, 24 h) [%]","Pt195 in LMWF ([3]; pH 7.4, 24 h) [%]",other results
"CC(=O)[O][Pt-2]12([O]C(=O)NCCOCCOCCOCCOCCN3C(=O)C=CC3=O)([NH2+][C@@H]3CCCC[C@H]3[NH2+]1)[O]C(=O)C(=O)[O]2 [Mal-Ox-OAc, (OC-6–34)-Acetato[(1R,2R)-1,2-cyclohexane-1,2-diamino][ (14-(2,5-dioxo-2,5-dihydro-1H-pyrrol-1-yl)-3,6,9,12-tetraoxatetradecyl)-carbamato]-oxalato platinum(IV)]",56% and ~60%,58% and ~60%,96%,80%,23,18,29%,71,94% and ~90%,6,94,6,94,6,94,6,94,6,93,7,Bound to albumin [3]: ~90%; Platinum in the HMWF (protein-bound) [4]: 75%; Platinum in the HMWF (protein-bound) [5]: less than 20%; Platinum in the HMWF (protein-bound) [6]: less than 10%; Platinum in the HMWF (protein-bound) [7]: ~30%; Cmax [8]: 35.6 mg/kg; Percentage of AUCPt_0-∞ extrapolated from tlast to infinity [8]: 27.7%; Half-life ([8]; i.v.): 12.2 h; CL [8]: 0.00892 kg/h/kg; Vz ([8]; i.v.): 0.157 kg/kg
"CC(=O)[O][Pt-2]12([O]C(=O)NCCOCCOCCOCCOc3ccc(-c4nnc(S(C)(=O)=O)o4)cc3)([NH2+][C@@H]3CCCC[C@H]3[NH2+]1)[O]C(=O)C(=O)[O]2 [PODS-Ox-OAc, (OC-6–34)-Acetato[(1R,2R)-1,2-cyclohexane-1,2-diamino][(2-(2-(2-(2-(4-(5-(methylsulfonyl)-1,3,4-oxadiazol-2-yl)-phenoxy)-ethoxy)-ethoxy)-ethoxy)-ethyl)-carbamato]-oxalato platinum(IV)]",54%,76%,99%,94%,70,9,2% and < 5%,98,87% and ~90%,13,91,9,92,8,92,8,92,8,92,8,"Bound to albumin [3]: ~90%; Platinum in the HMWF (protein-bound) [4]: 69%; Platinum in the HMWF (protein-bound) [5]: less than 20%; Platinum in the HMWF (protein-bound) [6]: less than 10%; Platinum in the HMWF (protein-bound) [7]: ~30%; Serum platinum level higher than after Mal-Ox-OAc treatment ([8]; at 5 and 30 min, i.v.): about 50%; Cmax [8]: 52.5 mg/kg; Percentage of AUCPt_0-∞ extrapolated from tlast to infinity [8]: 25.5%; Half-life ([8]; i.v.): 13.6 h; CL [8]: 0.00693 kg/h/kg; Vz ([8]; i.v.): 0.136 kg/kg"
"CC(=O)[O][Pt-2]12([O]C(=O)NCCOCCOCCOCCOC(=O)C3=CCCCC3S(=O)(=O)Nc3ccc(F)cc3F)([NH2+]C3CCCCC3[NH2+]1)[O]C(=O)C(=O)[O]2 (mixture of isomers) [DFSA-Ox-OAc, (OC-6–34)-Acetato[(1R,2R)-1,2-cyclohexane-1,2-diamino][(1-(6-(N-(2,4-difluorophenyl)-sulfamoyl)-cyclohex-1-en-1-yl)-1-oxo-2,5,8,11-tetraoxatridecan-13-yl)-carbamato]-oxalato platinum(IV)]",stable,stable,stable,stable,97,10,0%,100,34%,66,50,50,59,41,63,37,66,34,59,41,"Hydrolytic stability in all tested conditions ([1]; PB pH 5.5, 6.5, 7.4, HEPES and MOPS pH 7.4, 20 °C, 25 h): stable; Maximum albumin binding ([3]; reached after several hours): 66%; Platinum in the HMWF (protein-bound) [4]: 26%; Platinum in the HMWF (protein-bound) [5]: < 5%; Platinum in the HMWF (protein-bound) [6]: < 5%; Platinum in the HMWF (protein-bound) [7]: 20%; Cmax [8]: 4.61 mg/kg; Percentage of AUCPt_0-∞ extrapolated from tlast to infinity [8]: 45.6%; Half-life ([8]; i.v.): 21.9 h; CL [8]: 0.0685 kg/h/kg; Vz ([8]; i.v.): 2.17 kg/kg"
